Results reported in patent publication US6358885B1, “Substituted phenylheterocyclic herbicides” (Mississippi State University, priority 1992, dated 2002).

Experiments:
Test in all cases: Test B preemergence/postemergence greenhouse plant response rating 0 to 10
[1] = test system: wild buckwheat; assay type: in vivo, Polygonum convolvulus; conditions: POSTEMERGENCE, 0 to 10 scale
Procedure, shortened: (§1)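 Test chemicals, dissolved in a non-phytotoxic solvent, were applied to soil at planting and, at the same time, over foliage of seedlings at the one to four leaf stage.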

[2] = test system: giant foxtail; assay type: in vivo, Setaria faberii; conditions: 0 to 10 scale
Procedure, shortened: as §1

[3] = test system: morningglory; assay type: in vivo, Ipomoea hederacea; conditions: 0 to 10 scale
Procedure, shortened: as §1

[4] = test system: wheat; assay type: in vivo, Triticum aestivum; conditions: 0 to 10 scale
Procedure, shortened: as §1

[5] = test system: purple nutsedge; assay type: in vivo, Cyperus rotundus; conditions: 0 to 10 scale
Procedure, shortened: as §1

[6] = test system: sugar beet; assay type: in vivo, Beta vulgaris; conditions: 0 to 10 scale
Procedure, shortened: as §1

[7] = test system: bedstraw; assay type: in vivo, Galium aparine; conditions: 0 to 10 scale
Procedure, shortened: as §1

[8] = test system: barley; assay type: in vivo, Hordeum vulgare; conditions: 0 to 10 scale
Procedure, shortened: as §1

[9] = test system: barnyardgrass; assay type: in vivo, Echinochloa crus-galli; conditions: 0 to 10 scale
Procedure, shortened: as §1

[10] = test system: wild oat; assay type: in vivo, Avena fatua; conditions: 0 to 10 scale
Procedure, shortened: as §1

[11] = test system: soybean; assay type: in vivo, Glycine max; conditions: 0 to 10 scale
Procedure, shortened: as §1

[12] = test system: cheatgrass; assay type: in vivo, Bromus secalinus; conditions: 0 to 10 scale
Procedure, shortened: as §1

[13] = test system: corn; assay type: in vivo, Zea mays; conditions: 0 to 10 scale
Procedure, shortened: as §1

[14] = test system: chickweed; assay type: in vivo, Stellaria media; conditions: 0 to 10 scale
Procedure, shortened: as §1

[15] = test system: sorghum; assay type: in vivo, Sorghum bicolor; conditions: 0 to 10 scale
Procedure, shortened: as §1

[16] = test system: blackgrass; assay type: in vivo, Alopecurus myosuroides; conditions: 0 to 10 scale
Procedure, shortened: as §1

[17] = test system: lambsquarters; assay type: in vivo, Chenopodium album; conditions: 0 to 10 scale
Procedure, shortened: as §1

[18] = test system: cotton; assay type: in vivo, Gossypium hirsutum; conditions: 0 to 10 scale
Procedure, shortened: as §1

[19] = test system: velvetleaf; assay type: in vivo, Abutilon theophrasti; conditions: 0 to 10 scale
Procedure, shortened: as §1

[20] = test system: cocklebur; assay type: in vivo, Xanthium pensylvanicum; conditions: 0 to 10 scale
Procedure, shortened: as §1

[21] = test system: rape; assay type: in vivo, Brassica napus; conditions: 0 to 10 scale
Procedure, shortened: as §1

[22] = test system: rice; assay type: in vivo, Oryza sativa; conditions: 0 to 10 scale
Procedure, shortened: as §1

[23] = test system: crabgrass; assay type: in vivo, Digitaria spp.; conditions: 0 to 10 scale
Procedure, shortened: as §1

CCCCN1C(=O)COc2cc(F)c(-c3nn4c(c3Cl)CCCC4)cc21 [Compound 57]
Plant response rating, Wild buckwheat ([1]; Rate 10 g/ha): 10
Plant response rating, Wild buckwheat ([1]; Rate 50 g/ha): 10
Plant response rating, Giant foxtail ([2]; POSTEMERGENCE, Rate 10 g/ha): 5
Plant response rating, Giant foxtail ([2]; POSTEMERGENCE, Rate 50 g/ha): 6
Plant response rating, Giant foxtail ([2]; PREEMERGENCE, Rate 10 g/ha): 0
Plant response rating, Giant foxtail ([2]; PREEMERGENCE, Rate 50 g/ha): 2
Plant response rating, Morningglory ([3]; POSTEMERGENCE, Rate 10 g/ha): 10
Plant response rating, Morningglory ([3]; POSTEMERGENCE, Rate 50 g/ha): 10
Plant response rating, Morningglory ([3]; PREEMERGENCE, Rate 50 g/ha): 10
Plant response rating, Wheat ([4]; POSTEMERGENCE, Rate 10 g/ha): 7
Plant response rating, Wheat ([4]; POSTEMERGENCE, Rate 50 g/ha): 7
Plant response rating, Wheat ([4]; PREEMERGENCE, Rate 50 g/ha): 2
Plant response rating, Nutsedge ([5]; POSTEMERGENCE, Rate 10 g/ha): 2
Plant response rating, Nutsedge ([5]; POSTEMERGENCE, Rate 50 g/ha): 4
Plant response rating, Nutsedge ([5]; PREEMERGENCE, Rate 50 g/ha): 0
Plant response rating, Sugar beet ([6]; POSTEMERGENCE, Rate 10 g/ha): 10
Plant response rating, Sugar beet ([6]; POSTEMERGENCE, Rate 50 g/ha): 10
Plant response rating, Sugar beet ([6]; PREEMERGENCE, Rate 50 g/ha): 9
Plant response rating, Bedstraw ([7]; POSTEMERGENCE, Rate 10 g/ha): 9
Plant response rating, Bedstraw ([7]; POSTEMERGENCE, Rate 50 g/ha): 9
Plant response rating, Bedstraw ([7]; PREEMERGENCE, Rate 10 g/ha): 6
Plant response rating, Bedstraw ([7]; PREEMERGENCE, Rate 50 g/ha): 8
Plant response rating, Barley ([8]; POSTEMERGENCE, Rate 10 g/ha): 4
Plant response rating, Barley ([8]; POSTEMERGENCE, Rate 50 g/ha): 4
Plant response rating, Barley ([8]; PREEMERGENCE, Rate 10 g/ha): 0
Plant response rating, Barley ([8]; PREEMERGENCE, Rate 50 g/ha): 0
Plant response rating, Barnyardgrass ([9]; POSTEMERGENCE, Rate 10 g/ha): 3
Plant response rating, Barnyardgrass ([9]; POSTEMERGENCE, Rate 50 g/ha): 3
Plant response rating, Barnyardgrass ([9]; PREEMERGENCE, Rate 10 g/ha): 0
Plant response rating, Barnyardgrass ([9]; PREEMERGENCE, Rate 50 g/ha): 3
Plant response rating, Wild oat ([10]; POSTEMERGENCE, Rate 10 g/ha): 4
Plant response rating, Wild oat ([10]; POSTEMERGENCE, Rate 50 g/ha): 7
Plant response rating, Wild oat ([10]; PREEMERGENCE, Rate 50 g/ha): 5
Plant response rating, Soybean ([11]; POSTEMERGENCE, Rate 10 g/ha): 6
Plant response rating, Soybean ([11]; POSTEMERGENCE, Rate 50 g/ha): 8
Plant response rating, Soybean ([11]; PREEMERGENCE, Rate 50 g/ha): 0
Plant response rating, Cheatgrass ([12]; POSTEMERGENCE, Rate 10 g/ha): 4
Plant response rating, Cheatgrass ([12]; POSTEMERGENCE, Rate 50 g/ha): 6
Plant response rating, Cheatgrass ([12]; PREEMERGENCE, Rate 10 g/ha): 3
Plant response rating, Cheatgrass ([12]; PREEMERGENCE, Rate 50 g/ha): 5
Plant response rating, Corn ([13]; POSTEMERGENCE, Rate 10 g/ha): 3
Plant response rating, Corn ([13]; POSTEMERGENCE, Rate 50 g/ha): 4
Plant response rating, Corn ([13]; PREEMERGENCE, Rate 50 g/ha): 0
Plant response rating, Chickweed ([14]; POSTEMERGENCE, Rate 10 g/ha): 8
Plant response rating, Chickweed ([14]; POSTEMERGENCE, Rate 50 g/ha): 10
Plant response rating, Chickweed ([14]; PREEMERGENCE, Rate 10 g/ha): 6
Plant response rating, Chickweed ([14]; PREEMERGENCE, Rate 50 g/ha): 9
Plant response rating, Sorghum ([15]; POSTEMERGENCE, Rate 10 g/ha): 2
Plant response rating, Sorghum ([15]; POSTEMERGENCE, Rate 50 g/ha): 4
Plant response rating, Sorghum ([15]; PREEMERGENCE, Rate 50 g/ha): 0
Plant response rating, Blackgrass ([16]; POSTEMERGENCE, Rate 10 g/ha): 4
Plant response rating, Blackgrass ([16]; POSTEMERGENCE, Rate 50 g/ha): 7
Plant response rating, Blackgrass ([16]; PREEMERGENCE, Rate 10 g/ha): 3
Plant response rating, Blackgrass ([16]; PREEMERGENCE, Rate 50 g/ha): 6
Plant response rating, Lambsquarter ([17]; POSTEMERGENCE, Rate 10 g/ha): 9
Plant response rating, Lambsquarter ([17]; POSTEMERGENCE, Rate 50 g/ha): 10
Plant response rating, Lambsquarter ([17]; PREEMERGENCE, Rate 50 g/ha): 10
Plant response rating, Cotton ([18]; POSTEMERGENCE, Rate 10 g/ha): 10
Plant response rating, Cotton ([18]; POSTEMERGENCE, Rate 50 g/ha): 10
Plant response rating, Cotton ([18]; PREEMERGENCE, Rate 10 g/ha): 0
Plant response rating, Cotton ([18]; PREEMERGENCE, Rate 50 g/ha): 2
Plant response rating, Velvetleaf ([19]; POSTEMERGENCE, Rate 10 g/ha): 6
Plant response rating, Velvetleaf ([19]; POSTEMERGENCE, Rate 50 g/ha): 9
Plant response rating, Velvetleaf ([19]; PREEMERGENCE, Rate 50 g/ha): 10
Plant response rating, Cocklebur ([20]; POSTEMERGENCE, Rate 10 g/ha): 9
Plant response rating, Cocklebur ([20]; POSTEMERGENCE, Rate 50 g/ha): 9
Plant response rating, Cocklebur ([20]; PREEMERGENCE, Rate 10 g/ha): 0
Plant response rating, Cocklebur ([20]; PREEMERGENCE, Rate 50 g/ha): 3
Plant response rating, Rape ([21]; POSTEMERGENCE, Rate 10 g/ha): 10
Plant response rating, Rape ([21]; POSTEMERGENCE, Rate 50 g/ha): 10
Plant response rating, Rape ([21]; PREEMERGENCE, Rate 50 g/ha): 0
Plant response rating, Rice ([22]; POSTEMERGENCE, Rate 10 g/ha): 3
Plant response rating, Rice ([22]; POSTEMERGENCE, Rate 50 g/ha): 3
Plant response rating, Rice ([22]; PREEMERGENCE, Rate 50 g/ha): 0
Plant response rating, Crabgrass ([23]; POSTEMERGENCE, Rate 10 g/ha): 2
Plant response rating, Crabgrass ([23]; POSTEMERGENCE, Rate 50 g/ha): 3
Plant response rating, Crabgrass ([23]; PREEMERGENCE, Rate 10 g/ha): 0
Plant response rating, Crabgrass ([23]; PREEMERGENCE, Rate 50 g/ha): 0
